How the values were obtained:
[1] = test system: 3T3 L1 fibroblasts; assay: Glucose transport activity (14C-2-deoxy-D-glucose uptake); format: cell-based; settings: Mus musculus; differentiated 3T3 L1 cells, insulin 5.6 nM; concentration giving increase in glucose transport generally 150% of the vehicle control
Description: 3T3 L1 fibroblasts (ATCC) were grown in Dulbecco's modified Eagle's medium (DMEM) with 10% fetal bovine serum (FBS, medium). The cells were plated at a density of 3×10^4 cells/well in 24-well plates. Two days after confluence was reached, the cells were treated for 3 days with 0.5 mM isobutylmethylxanthine (IBMX), 1 μM dexamethasone, supplemented with 1.7 μM insulin. The cells were then transferred to medium with 1.7 μM insulin for 2 more days. The cells were maintained in medium for an additional 4 days. Finally the cells were serum starved overnight in 0.1% bovine serum albumin (BSA) in DMEM.
The following day, the culture medium was replaced with 150 mM NaCl, 1.7 mM KCl, 0.9 mM CaCl2, 1.47 mM K2HPO4 (pH 7.4) to which was added either the experimental compounds, or their vehicle (DMSO). Insulin or its vehicle (0.01% BSA) was diluted in the assay buffer (containing test compound or vehicle, respectively) to a final concentration of 5.6 nM. After incubation for 30 min at 37° C. 5 μCi/mL ^14C-2-[…]-D-glucose was added, and the incubation was continued for additional 30 min at 37° C. The cells were then washed 3 times with ice-cold PBS/20 mM glucose and […] in 250 μl of lysis buffer (50 mM HEPES pH 7.6, 1% Triton X-100) for 30 min at room temperature. Radioactivity in the lysate was quantified by scintillation counting.
Once ^14C-2-deoxy-D-glucose is transported into the cell it is not released. Glucose transport is, therefore, proportional to the amount of radioactivity in the lysate. The concentration of compound necessary to produce an increase in glucose transport greater than the sum of the standard deviation of the vehicle control plus the largest standard deviation of a test sample (generally 150% of the vehicle control) was recorded as the EC (effective concentration).

[2] = target: T1, β-kinase domain of the human insulin receptor (CKD) (Homo sapiens, UniProt P06213); assay: 32P-Cytoplasmic Kinase Domain (CKD) autophosphorylation assay; format: biochemical; settings: 32P incorporated into CKD band, percentage of the vehicle (DMSO) level; 10 minutes at room temperature; compound concentration not given
T1 construct: The complete β-kinase domain of the human insulin receptor (CKD); made in house
Description: The complete β-kinase domain of the human insulin receptor (CKD) was expressed in, and purified from, baculovirus. CKD (4.0 μg/mL), in a solution of 50 mM Tris.HCl, 2 mM MnCl2, 10 mM MgCl2 (50 μl final volume), was combined with […] ATP, and 5 μCi ^32P-ATP (3000 Ci/mmol.). A test compound, or the vehicle (DMSO), was added to a final DMSO concentration of 1%. The mixture was incubated for 10 minutes at room temperature. The reaction was terminated by the addition of 10 μl of 200 mM EDTA. A 30 μl volume was removed, mixed with 5 μl of 6×Laemmeli sodium dodecyl sulfate (SDS) treatment buffer, and heated to 94° C. for 5 minutes. A 20 μl aliquot was then run on an SDS-PAGE gel. The radioactivity incorporated into the CKD band is quantified by phosphorimaging of the gel, or scintillation counting of the excised bands.
The potency of a compound for increasing phosphorylation is expressed as a percentage of the vehicle level.

T1 sequence (P06213 980-1382 limits assumed): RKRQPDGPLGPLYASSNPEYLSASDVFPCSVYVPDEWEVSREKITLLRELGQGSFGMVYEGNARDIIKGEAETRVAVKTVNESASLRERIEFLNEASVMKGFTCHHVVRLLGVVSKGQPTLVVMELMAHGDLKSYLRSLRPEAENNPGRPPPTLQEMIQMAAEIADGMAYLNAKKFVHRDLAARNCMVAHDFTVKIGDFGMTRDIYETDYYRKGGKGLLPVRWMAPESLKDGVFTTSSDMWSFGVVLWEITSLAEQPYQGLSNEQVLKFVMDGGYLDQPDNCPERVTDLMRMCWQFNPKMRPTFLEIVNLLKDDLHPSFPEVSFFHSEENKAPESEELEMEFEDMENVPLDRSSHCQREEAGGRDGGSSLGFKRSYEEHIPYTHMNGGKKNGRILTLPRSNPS

O=C(Nc1cc(C(=O)Nc2cccc3cc(S(=O)(=O)O)ccc23)cc(C(=O)Nc2cccc3cc(S(=O)(=O)O)ccc23)c1)c1ccc(Cl)cc1 [Compound 19, 5-({3-[(4-chlorophenyl)carbonylamino]-5-[N-(6-sulfonaphthyl)carbamoyl]phenyl}carbonylamino)naphthalene-2-sulfonic acid]
EC50 [1]: 150 µM
Activity (% Control) [2]: 99 % Control

O=C(Nc1cccc2cc(S(=O)(=O)O)ccc12)c1cc(NC(=O)c2cccc(O)c2C(=O)O)cc(C(=O)Nc2cccc3cc(S(=O)(=O)O)ccc23)c1 [Compound 21, 2-(N-{3,5-bis[N-(6-sulfonaphthyl)carbamoyl]phenyl}carbamoyl)-6-hydroxybenzoic acid]
EC50 [1]: > 250 µM
Activity (% Control) [2]: 104.3 % Control

Cc1ccc(C(=O)Nc2cc(C(=O)Nc3cccc4cc(S(=O)(=O)O)ccc34)cc(C(=O)Nc3cccc4cc(S(=O)(=O)O)ccc34)c2)cc1[N+](=O)[O-] [Compound 16, 5-({3-[(3-nitro-4-methylphenyl)carbonylamino]-5-[N-(6-sulfonaphthyl)carbamoyl]phenyl}carbonylamino)naphthalene-2-sulfonic acid]
EC50 [1]: 20 µM
Activity (% Control) [2]: 99.9 % Control

O=C(Nc1cccc2cc(S(=O)(=O)O)ccc12)c1cc(NC(=O)c2ccccc2C(=O)O)cc(C(=O)Nc2cccc3cc(S(=O)(=O)O)ccc23)c1 [Compound 17, 2-(N-{3,5-bis[N-(6-sulfonaphthyl)carbamoyl]phenyl}carbamoyl)benzoic acid]
EC50 [1]: > 250 µM
Activity (% Control) [2]: 92.7 % Control

Cc1cccc(C(=O)Nc2cc(C(=O)Nc3cccc4cc(S(=O)(=O)O)ccc34)cc(C(=O)Nc3cccc4cc(S(=O)(=O)O)ccc34)c2)c1 [Compound 7, 5-({3-[(3-methylphenyl)carbonylamino]-5-[N-(6-sulfonaphthyl)carbamoyl]phenyl}carbonylamino)naphthalene-2-sulfonic acid]
EC50 [1]: > 250 µM
Activity (% Control) [2]: 93.3 % Control

O=C(Nc1cc(C(=O)Nc2cccc3cc(S(=O)(=O)O)ccc23)cc(C(=O)Nc2cccc3cc(S(=O)(=O)O)ccc23)c1)c1cccc(Cl)c1 [Compound 10, 5-({3-[(3-chlorophenyl)carbonylamino]-5-[N-(6-sulfonaphthyl)carbamoyl]phenyl}carbonylamino)naphthalene-2-sulfonic acid]
EC50 [1]: 20 µM
Activity (% Control) [2]: 123.1 % Control

O=C(Nc1cccc2cc(S(=O)(=O)O)ccc12)c1cc(NC(=O)c2cc(Cl)c(Cl)cc2C(=O)O)cc(C(=O)Nc2cccc3cc(S(=O)(=O)O)ccc23)c1 [Compound 18, 2-(N-{3,5-bis[N-(6-sulfonaphthyl)carbamoyl]phenyl}carbamoyl)-4,5-dichlorobenzoic acid]
EC50 [1]: > 250 µM
Activity (% Control) [2]: 95.3 % Control

O=C(Nc1cc(C(=O)Nc2cccc3cc(S(=O)(=O)O)ccc23)cc(C(=O)Nc2cccc3cc(S(=O)(=O)O)ccc23)c1)c1cccc(F)c1 [Compound 11, 5-({3-[(3-fluorophenyl)carbonylamino]-5-[N-(6-sulfonaphthyl)carbamoyl]phenyl}carbonylamino)naphthalene-2-sulfonic acid]
EC50 [1]: 20 µM
Activity (% Control) [2]: 94 % Control

O=C(Nc1cc(C(=O)Nc2cccc3cc(S(=O)(=O)O)ccc23)cc(C(=O)Nc2cccc3cc(S(=O)(=O)O)ccc23)c1)c1ccccc1 [Compound 22, 5-({3-(phenylcarbonylamino)-5-[N-(6-sulfonaphthyl)carbamoyl]phenyl}carbonylamino)naphthalene-2-sulfonic acid]
EC50 [1]: 200 µM
Activity (% Control) [2]: 75.9 % Control

O=C(Nc1cccc2cc(S(=O)(=O)O)ccc12)c1cc(NC(=O)c2cnc3ccccc3n2)cc(C(=O)Nc2cccc3cc(S(=O)(=O)O)ccc23)c1 [Compound 39]
EC50 [1]: 100 µM
Activity (% Control) [2]: 96.9 % Control

Cc1ccc(OCC(=O)Nc2cc(C(=O)Nc3cccc4cc(S(=O)(=O)O)ccc34)cc(C(=O)Nc3cccc4cc(S(=O)(=O)O)ccc34)c2)cc1 [Compound 40, 5-({3-[2-(4-methylphenoxy)acetylamino]-5-[N-(6-sulfonaphthyl)carbamoyl]phenyl}carbonylamino)naphthalene-2-sulfonic acid]
EC50 [1]: > 250 µM
Activity (% Control) [2]: 130.7 % Control

O=C(Nc1cc(C(=O)Nc2cccc3cc(S(=O)(=O)O)ccc23)cc(C(=O)Nc2cccc3cc(S(=O)(=O)O)ccc23)c1)c1cccc([N+](=O)[O-])c1 [Compound 15, 5-({3-[(3-nitrophenyl)carbonylamino]-5-[N-(6-sulfonaphthyl)carbamoyl]phenyl}carbonylamino)naphthalene-2-sulfonic acid]
EC50 [1]: 240 µM
Activity (% Control) [2]: 88.2 % Control

COc1ccc(C(=O)Nc2cc(C(=O)Nc3cccc4cc(S(=O)(=O)O)ccc34)cc(C(=O)Nc3cccc4cc(S(=O)(=O)O)ccc34)c2)cc1 [Compound 9, 5-({3-[(4-methoxyphenyl)carbonylamino]-5-[N-(6-sulfonaphthyl)carbamoyl]phenyl}carbonylamino)naphthalene-2-sulfonic acid]
EC50 [1]: 10 µM
Activity (% Control) [2]: 125.3 % Control

Cc1ccc(C(=O)Nc2cc(C(=O)Nc3cccc4cc(S(=O)(=O)O)ccc34)cc(C(=O)Nc3cccc4cc(S(=O)(=O)O)ccc34)c2)cc1 [Compound 8, 5-({3-[(4-methylphenyl)carbonylamino]-5-[N-(6-sulfonaphthyl)carbamoyl]phenyl}carbonylamino)naphthalene-2-sulfonic acid]
EC50 [1]: 3 µM
Activity (% Control) [2]: 130.5 % Control

COc1cccc(C(=O)Nc2cc(C(=O)Nc3cccc4cc(S(=O)(=O)O)ccc34)cc(C(=O)Nc3cccc4cc(S(=O)(=O)O)ccc34)c2)c1 [Compound 13, 5-({3-[(3-methoxyphenyl)carbonylamino]-5-[N-(6-sulfonaphthyl)carbamoyl]phenyl}carbonylamino)naphthalene-2-sulfonic acid]
EC50 [1]: 200 µM
Activity (% Control) [2]: 83.7 % Control

CC(=O)Nc1cc(C(=O)Nc2cccc3cc(S(=O)(=O)O)ccc23)cc(C(=O)Nc2cccc3cc(S(=O)(=O)O)ccc23)c1 [Compound 23, 5-({3-(acetylamino)-5-[N-(6-sulfonaphthyl)carbamoyl]phenyl}carbonylamino)naphthalene-2-sulfonic acid]
EC50 [1]: > 250 µM
Activity (% Control) [2]: 86.8 % Control
